{"source": "patent US12312346B2", "about": "“Pyridopyrimidine compounds and methods of their use” (Tufts Medical Center, Inc., priority 2018, dated 2025)", "type_in_all_cases": "cell-based", "key": {"[1]": {"tested_on": "human leukemia cell line HPBALL (with Notch1 mutations)", "experiment": "Cell cycle (PI staining, S-G2-M cells) and cell number, HPBALL", "protocol": "FIG. 1A is a series of charts showing representative cell cycle profiles of human leukemia cell line HPBALL (with Notch1 mutations) treated with a vehicle (V) (for ribociclib (LEE) or compound GD) or LEE or compound GD for 6 days at 1, 5, 10, and 20 μM.\nFIG. 1B is a histogram summarizing the cell cycle distribution of the HPBALL cell line treated with compound GD, as described for FIG. 1A. Data shown are mean±S.D. (n=6); *P<0.05 vs its vehicle controls, t-test.\nFIG. 1C is a histogram summarizing the cell cycle distribution of the HPBALL cell line treated with ribociclib (LEE), as described for FIG. 1A. Data shown are mean±S.D. (n=6); *P<0.05 vs its vehicle controls, t-test.\nFIG. 1D is a chart the percentage of S-G2-M cells in FIGS. 1B and 1C. IC50 is the concentration of an inhibitor where the response (here is the inhibition of proliferation) is reduced by half.\nFIG. 1E is a bar graph summarizing the cell numbers of HPBALL cells treated with either GD with different doses or LEE (20 μM) for 6 days. Data shown are mean±S.D. (n=6); *P<0.05 vs vehicles (0) control, t-test.\nHCl salt of 6-acetyl-5-methyl-2-((4-(piperazin-1-ylmethyl)thiazol-2-yl)amino)pyrido[2,3-d]pyrimidin-7(8H)-one (Compound GD) prepared in Example 1 was examined for its inhibitory activity in cancer cell lines and WT and CDK6^−/− mouse embryonic fibroblasts (MEFs) and stromal vascular fractions (SVFs). […]\n(§1) Table 2: Experimental Procedures: sensitivity to CDK6 kinase activity inhibition was tested by incubating different cell lines in the presence of CDK6 inhibitor GD007/PBS for either 24 hours for detecting the status of pRB-780 phosphorylation, or 5 days for determining the effect of GD007 on cell proliferation. (1) By immunoblotting (WB), we will detect phospho-pRB-S^780, one of the substrates of CDK6 kinase; (2) By using FACS analysis, we will stain treated cells with Propidium Iodide (PI), a commonly used fluorescent intercalator, to measure the subpopulation of cell cycle to reveal any impact of CDK6 inhibition on cell proliferation; (3) cell numbers will be counted using hemocytometer."}, "[2]": {"tested_on": "human leukemia cell line T-ALL1 (with WT Notch1)", "experiment": "Cell cycle (PI staining, S-G2-M cells) and cell number, T-ALL1", "protocol": "FIG. 2A is a series of charts showing representative cell cycle profiles of human leukemia cell line T-ALL1 (with WT Notch1) treated with a vehicle (V) (for palbociclib (PD) or compound GD), PD (0.5 μM), or compound GD at 1, 2.5, 5, 10, and 20 μM for 6 days.\nFIG. 2B is a histogram summarizing the cell cycle distribution of the T-ALL1 cell line in FIG. 2A. Data shown are mean±S.D. (n=6); *P<0.05 vs its vehicle controls, t-test.\nFIG. 2C is a chart showing the percentage of S-G2-M cells in samples in FIGS. 2A and 2B. […]\nas §1"}, "[3]": {"tested_on": "phosphorylated pRB at SER-780 in HPAC-1 cells", "experiment": "Immunoblot of phosphorylated pRB (SER-780) and PI staining, HPAC-1", "protocol": "FIG. 5D is an image of a representative immunoblot showing the levels of phosphorylated pRB at SER-780 in HPAC-1 cells following treatment of these cells with a vehicle, PD, or compound GD for 24 hours. Tubulin was used as loading control.\nas §1"}, "[4]": {"tested_on": "differentiated SVF cells (beige cell formation)", "experiment": "Oil Red O staining of differentiated SVF cells with BAT inducers", "conditions": "GD 5 μM, FIG. 8B", "protocol": "FIG. 8B is an image of Oil Red O staining of differentiated SVF cells treated with a vehicle or compound GD (5 μM) in the presence of brown adipose tissue (BAT) inducers. Scale bar: 100 μM\n(§2) Beige cells are associated with protection against obesity and metabolic syndrome (WO 2017/161253). Accordingly, compound GD and related compounds of the invention can be used for treating obesity and related metabolic diseases."}, "[5]": {"tested_on": "mouse KO-MEFs (CDK6^−/− MEFs)", "experiment": "Cell cycle and cell number, CDK6-/- MEFs (KO-MEFs)", "protocol": "FIG. 6E is a series of charts showing representative cell cycle profiles of mouse KO-MEFs treated with a vehicle (V), PD (0.5 μM), or compound GD at 1, 5, 10, and 20 μM for 6 days.\nFIG. 6F is a histogram summarizing the cell cycle distribution in FIG. 6E. Data shown are mean±S.D. (n=6); *P<0.05 vs its vehicle control, t-test.\nFIG. 6G is a bar graph summarizing the cell numbers of KO-MEFs treated with PD (0.5 μM) or compound GD at different doses for 6 days. Data shown are mean±S.D. (n=6); *P<0.05 vs its vehicle control, t-test.\n(§3) HCl salt of 6-acetyl-5-methyl-2-((4-(piperazin-1-ylmethyl)thiazol-2-yl)amino)pyrido[2,3-d]pyrimidin-7(8H)-one (Compound GD) prepared in Example 1 was examined for its inhibitory activity in cancer cell lines and WT and CDK6^−/− mouse embryonic fibroblasts (MEFs) and stromal vascular fractions (SVFs). MEFs and SVFs are enriched with mesenchymal stem cells (MSC) and pre-adipocytes which can differentiate into a variety of cell types, including adipocytes."}, "[6]": {"tested_on": "differentiated SVF cells (white adipocyte formation)", "experiment": "Oil Red O staining of differentiated SVF cells with WAT inducers", "conditions": "vs vehicle", "protocol": "FIG. 8A is an image of Oil Red O staining of differentiated SVF cells treated with a vehicle or compound GD (5 μM) in the presence of white adipose tissue (WAT) inducers. Scale bar: 100 μM\nFIG. 8C is an image of Oil Red O staining of differentiated SVF cells treated with a vehicle or compound GD (0.1 μM) in the presence of white adipose tissue (WAT) inducers. Scale bar: 400 μM for the top 2 images, and 100 μM for the bottom two images.\nas §2"}, "Prostate Cancer: DU145": {"tested_on": "Prostate Cancer: DU145", "experiment": "pRB-780 immunoblot, DU145", "conditions": "WB: P-RB-780", "protocol": "as §1"}, "mouse WT SVFs": {"tested_on": "mouse WT SVFs", "experiment": "Cell number, WT-SVFs", "conditions": "6 days; GD 0.1-10 μM", "protocol": "FIG. 7A is a bar graph showing the cell numbers of WT-SVFs treated with LEE (10 μM) or compound GD at 0.1, 0.5, 1.0, 5.0, and 10 μM for 6 days. Data shown are mean±S.D. (n=6); *P<0.05 vs its vehicle control, t-test.\nas §3"}}, "data": [{"compound": "CC(=O)c1c(C)c2cnc(Nc3nc(CN4CCNCC4)cs3)nc2[nH]c1=O", "note": "[Compound GD, 6-acetyl-5-methyl-2-((4-(piperazin-1-ylmethyl)thiazol-2-yl)amino)pyrido[2,3-d]pyrimidin-7(8H)-one]", "values": [{"measurement": "IC50", "setting": "[1]; Homo sapiens, 144 h, HPBALL, 6 days, read-out: IC50 (inhibition of proliferation, percentage of S-G2-M cells)", "result": "~4000", "unit": "nM"}, {"measurement": "Compound GD Efficacy", "setting": "[1]; Leukemic cells: HPBALL, PI Staining, and cell number counting", "result": "Efficacious"}, {"measurement": "IC50", "setting": "[2]; Homo sapiens, TALL-1, 144 h, T-ALL1, 6 days, read-out: IC50 (percentage of S-G2-M cells, growth inhibition)", "result": "~1100", "unit": "nM"}, {"measurement": "Compound GD Efficacy", "setting": "[2]; Leukemic cells: TALL1, PI Staining, and cell number counting", "result": "Efficacious"}, {"measurement": "Compound GD Efficacy", "setting": "[3]; Pancreas Cancer: HPAC, WB and PI staining", "result": "Efficacious"}, {"measurement": "pRB phosphorylation", "setting": "[3]; pancreas adenocarcinoma (HPAC-1), 24 hours", "result": "inhibits pRB phosphorylation"}, {"measurement": "beige cell formation", "setting": "[4]", "result": "induced beige cell formation"}, {"measurement": "proliferation of CDK6−/− MEFs", "setting": "[5]; 6 days, GD 1-20 μM, PD 0.5 μM", "result": "little effect"}, {"measurement": "preference for CDK6 over CDK4", "setting": "[5]; concluded from WT versus CDK6−/− MEFs and SVFs", "result": "preferentially inhibits CDK6 over CDK4"}, {"measurement": "white adipocyte formation", "setting": "[6]; GD 0.1 μM, FIG. 8C", "result": "inhibited white adipocyte formation"}, {"measurement": "white adipocyte formation", "setting": "[6]; GD 5 μM, FIG. 8A", "result": "inhibited white adipocyte formation"}, {"measurement": "Compound GD Efficacy", "setting": "Prostate Cancer: DU145", "result": "No"}, {"measurement": "proliferation of mouse WT SVFs", "setting": "mouse WT SVFs", "result": "inhibited proliferation"}]}]}
